Experimental data from patent US20230277569A1, “Compositions and Methods for Treating, Ameliorating and/or Preventing Cancer and Kits for the Same” (priority 2022, published 2023).

Assay: Phase I, cytochrome P450-mediated human liver microsome metabolism
Details: 0.5 μM; human liver microsomes

Cc1ncc2n1-c1ccc(Cl)cc1C(c1ccccc1F)=NC2 [Midazolam, reference compound]
elimination rate constant (k): 0.04
intrinsic clearance (CLint): 3.23 mL/min/g
